Reference: the NIST ThermoML archive (doi:10.1021/acs.jced.8b00729)

Conditions: Gamma attenuation method

C1C[C@@H]2[C@H]3CC[C@H](C3)[C@@H]2C1 [exo-tetrahydrodicyclopentadiene]
Conditions	mass density [kg/m3]
267.3 K, 1480 kPa, Liquid	961.5
267.3 K, 6000 kPa, Liquid	962.3
267.9 K, 700 kPa, Liquid	960.4
267.9 K, 3060 kPa, Liquid	962.1
289.1 K, 6000 kPa, Liquid	952
290.2 K, 1480 kPa, Liquid	939.1
290.9 K, 700 kPa, Liquid	937.8
292.8 K, 3060 kPa, Liquid	940.4
307 K, 700 kPa, Liquid	924.7
307.5 K, 1480 kPa, Liquid	928.1
308.7 K, 3060 kPa, Liquid	930.1
309 K, 6000 kPa, Liquid	940.8
335.4 K, 6000 kPa, Liquid	918.1
336.6 K, 3060 kPa, Liquid	911.5
337.1 K, 700 kPa, Liquid	908.7
337.2 K, 1480 kPa, Liquid	910.1
368.4 K, 700 kPa, Liquid	881.1
369.6 K, 1480 kPa, Liquid	884.2
371.3 K, 3060 kPa, Liquid	884.3
373.9 K, 6000 kPa, Liquid	893.8
391.4 K, 6000 kPa, Liquid	883.9
391.9 K, 700 kPa, Liquid	861.9
394.8 K, 1480 kPa, Liquid	863.2
394.8 K, 3060 kPa, Liquid	864.7
430.8 K, 6000 kPa, Liquid	850.6
431.4 K, 700 kPa, Liquid	824.8
431.4 K, 1480 kPa, Liquid	832.6
431.4 K, 3060 kPa, Liquid	834.1
453.2 K, 3060 kPa, Liquid	820.5
453.8 K, 700 kPa, Liquid	801.2
454.4 K, 1480 kPa, Liquid	815.4
454.6 K, 6000 kPa, Liquid	829.8
483.1 K, 1480 kPa, Liquid	796.7
483.8 K, 700 kPa, Liquid	779.5
485.1 K, 3060 kPa, Liquid	800.4
485.9 K, 6000 kPa, Liquid	807
510 K, 700 kPa, Liquid	759.3
510.1 K, 1480 kPa, Liquid	772.1
510.3 K, 3060 kPa, Liquid	783.9
512.1 K, 6000 kPa, Liquid	777.4
529.9 K, 3060 kPa, Liquid	756
530.4 K, 1480 kPa, Liquid	743
531.9 K, 6000 kPa, Liquid	752.2
532.4 K, 700 kPa, Liquid	737.7
562.1 K, 700 kPa, Liquid	646.3
563.8 K, 1480 kPa, Liquid	716.9
564.1 K, 3060 kPa, Liquid	726.9
566.8 K, 6000 kPa, Liquid	719.2
603.4 K, 700 kPa, Gas	25.5
617.6 K, 1480 kPa, Gas	153.4
623.8 K, 6000 kPa, Liquid	661.1
627.1 K, 3060 kPa, Liquid	633.8
651.6 K, 700 kPa, Gas	22.9
651.9 K, 3060 kPa, Liquid	590.9
652.4 K, 6000 kPa, Liquid	615.5
652.9 K, 1480 kPa, Gas	55.3
681.8 K, 6000 kPa, Liquid	579.7
682.7 K, 700 kPa, Gas	29.4
683.2 K, 1480 kPa, Gas	57.8
685 K, 3060 kPa, Gas	193.2
714 K, 6000 kPa, Gas	465.2
715 K, 3060 kPa, Gas	124.1
715.8 K, 1480 kPa, Gas	58
730.2 K, 700 kPa, Gas	19.5
743.7 K, 3060 kPa, Gas	104.8
743.8 K, 6000 kPa, Gas	256.7
744 K, 1480 kPa, Gas	52.4
744.7 K, 700 kPa, Gas	19.7
771.9 K, 700 kPa, Gas	26.4
773.7 K, 1480 kPa, Gas	50.2
773.7 K, 6000 kPa, Gas	152.1
774 K, 3060 kPa, Gas	96.1
803.3 K, 700 kPa, Gas	24.4
803.8 K, 3060 kPa, Gas	87.6
804 K, 1480 kPa, Gas	47.9
804.1 K, 6000 kPa, Gas	142
833 K, 700 kPa, Gas	25.4
833.3 K, 1480 kPa, Gas	52.1
833.4 K, 6000 kPa, Gas	120.1
833.5 K, 3060 kPa, Gas	83.9
872.2 K, 3060 kPa, Gas	70.8
872.5 K, 1480 kPa, Gas	46.1
873.3 K, 700 kPa, Gas	24.4
873.4 K, 6000 kPa, Gas	110.1
